Counter-ions that a name gives are not always drawn.
What was measured:
[1] = tested on: Pyrenophora teres (Helminthosporium); assay: Assay B-10: Effect against Pyrenophora teres (Helminthosporium)/barley (net blotch on barley); format: in vivo; details: Pyrenophora teres on barley cv. Regina, 0.02% active substance, spray; for pest or weed control at 0.02 % strength: 96 h, read-out: B10 activity
Method: Assay B-10: Effect Against Pyrenophora teres (Helminthosporium)/Barley (Net Blotch on Barley) 1 week old barley plants cv. Regina are treated with a formulated testcompound (0.02% active substance) in a spray chamber. Two days after application barley plants are inoculated by spraying a spore suspension (3×10^4 conidia/ml) on the test plants. After an incubation period of 2 days at 20° C. and 95% r.h. plants are kept for 2 days at 20° C. and 60% r.h. in a greenhouse. The disease incidence is assessed 4 days after inoculation.

Botrytis cinerea [2] = assay: Assay B-7: Botrytis cinerea/grape (Botrytis on grapes); format: in vivo; details: Botrytis cinerea on grape seedlings cv. Gutedel; 0.02% active substance, spray
Method: Assay B-7: Botrytis cinerea/Grape (Botrytis on Grapes) 5 week old grape seedlings cv. Gutedel are treated with the formulated testcompound (0.02% active substance) in a spray chamber. Two days after application grape plants are inoculated by spraying a spore suspension (1×10^6 conidia/ml) on the test plants. After an incubation period of 4 days at 21° C. and 95% r. h. in a greenhouse the disease incidence is assessed.

Septoria nodorum = assay: Assay B-12: Effect against Septoria nodorum/wheat (Septoria leaf spot on wheat); format: in vivo; details: Septoria nodorum on wheat cv. Arina, 0.02% active substance, spray; for pest or weed control at 0.02 % strength: Parastagonospora nodorum, 264 h, read-out: B12 activity
Method: Assay B-12: Effect Against Septoria nodorum/Wheat (Septoria Leaf Spot on Wheat) 1 week old wheat plants cv. Arina are treated with a formulated test compound (0.02% active substance) in a spray chamber. One day after application wheat plants are inoculated by spraying a spore suspension (5×10^5 conidia/ml) on the test plants. After an incubation period of 1 day at 20° C. and 95% r.h. plants are kept for 10 days at 20° C. and 60% r.h. in a greenhouse. The disease incidence is assessed 11 days after inoculation.

Venturia inaegualis = assay: Assay B-5: Residual protective activity against Venturia inaegualis on apples (scab on apple); format: in vivo; details: Venturia inaegualis on apple seedlings cv. McIntosh; 0.02% active substance, spray
Method: Assay B-5: Residual Protective Activity Against Venturia inaegualis on Apples (Scab on Apple) 4 week old apple seedlings cv. McIntosh are treated with the formulated testcompound (0.02% active substance) in a spray chamber. One day after application apple plants are inoculated by spraying a spore suspension (4×10^5 conidia/ml) on the test plants. After an incubation period of 4 days at 21° C. and 95% r. h. the plants are placed for 4 days at 21° C. and 60% r. h. in a greenhouse. After another 4 day incubation period at 21° C. and 95% r. h. the disease incidence is assessed.

Botrytis cinerea [3] = assay: Assay B-8: Effect against Botrytis cinerea/tomato (Botrytis on tomatoes); format: in vivo; details: Botrytis cinerea on tomato cv. Roter Gnom; 0.02% active substance, spray
Method: Assay B-8: Effect Against Botrytis cinerea/Tomato (Botrytis on Tomatoes) 4 week old tomato plants cv. Roter Gnom are treated with the formulated testcompound 0.02% active substance) in a spray chamber. Two days after application tomato plants are inoculated by spraying a spore suspension (1×10^5 conidia/ml) on the test plants. After an incubation period of 4 days at 20° C. and 95% r. h. in a greenhouse the disease incidence is assessed.

Pyricularia oryzae = format: in vivo; details: Pyricularia oryzae on rice cv. Sasanishiki; 0.02% active substance, spray

Row | Compound | melting point [°C] | pest or weed control at 0.02 % strength [1] [%] | B7 activity (Botrytis cinerea [2]) | B12 activity (Septoria nodorum) | B5 activity (Venturia inaegualis) | B8 activity (Botrytis cinerea [3]) | B10 activity [1] | B9 activity (Pyricularia oryzae) | pest or weed control at 0.02 % strength (Septoria nodorum) [%]
1 | CC(C)Nc1cc(-c2ccnc(Nc3cccc(Cl)c3)n2)ccn1 (as salt: HCl) [Compound 82] | 88 to 89 |  |  |  |  |  |  |  | 
2 | Clc1cccc(Nc2nccc(-c3ccnc(N4CCOCC4)c3)n2)c1 [Compound 17] | 175 to 176 |  |  |  |  |  |  |  | 
3 | Clc1cccc(Nc2nccc(-c3ccnc(N4CCNCC4)c3)n2)c1 [Compound 21] | 103 to 104 |  |  |  |  |  |  |  | 
4 | NNc1cc(-c2ccnc(Nc3cccc(Cl)c3)n2)ccn1 [Compound 22] | 201 to 203 | > 70 |  |  |  |  |  |  | 
5 | CC(C)(CO)Nc1cc(-c2ccnc(Nc3cccc(Cl)c3)n2)ccn1 [Compound 28] |  |  | + (the activity observed in the corresponding test system is 70% or more) | + (the activity observed in the corresponding test system is 70% or more) | + (the activity observed in the corresponding test system is 70% or more) | + (the activity observed in the corresponding test system is 70% or more) | + (the activity observed in the corresponding test system is 70% or more) |  | 
6 | CC(CNc1cc(-c2ccnc(Nc3cccc(Cl)c3)n2)ccn1)Cn1ccnc1 (stereo not shown) [Compound 30] |  |  |  | + (the activity observed in the corresponding test system is 70% or more) | + (the activity observed in the corresponding test system is 70% or more) | + (the activity observed in the corresponding test system is 70% or more) | + (the activity observed in the corresponding test system is 70% or more) |  | 
7 | OCC(CO)Nc1cc(-c2ccnc(Nc3cccc(Cl)c3)n2)ccn1 [Compound 35] |  |  | + (the activity observed in the corresponding test system is 70% or more) |  | + (the activity observed in the corresponding test system is 70% or more) | + (the activity observed in the corresponding test system is 70% or more) | + (the activity observed in the corresponding test system is 70% or more) |  | 
8 | COCOCC(C)N(COC)c1cc(-c2ccnc(Nc3cccc(Cl)c3)n2)ccn1 (stereo not shown) [Compound 38] |  |  |  | + (the activity observed in the corresponding test system is 70% or more) | + (the activity observed in the corresponding test system is 70% or more) |  | + (the activity observed in the corresponding test system is 70% or more) |  | 
9 | CC(CO)Nc1cc(-c2ccnc(Nc3cccc(Cl)c3)n2)ccn1 (stereo not shown) [Compound 39] |  |  | + (the activity observed in the corresponding test system is 70% or more) | + (the activity observed in the corresponding test system is 70% or more) |  | + (the activity observed in the corresponding test system is 70% or more) | + (the activity observed in the corresponding test system is 70% or more) | + (the activity observed in the corresponding test system is 70% or more) | 
10 | CCC(C)C(CO)Nc1cc(-c2ccnc(Nc3cccc(Cl)c3)n2)ccn1 (stereo not shown) [Compound 41] |  |  | + (the activity observed in the corresponding test system is 70% or more) |  | + (the activity observed in the corresponding test system is 70% or more) |  | + (the activity observed in the corresponding test system is 70% or more) |  | 
11 | OCCCNc1cc(-c2ccnc(Nc3cccc(Cl)c3)n2)ccn1 [Compound 46] |  |  |  | + (the activity observed in the corresponding test system is 70% or more) |  |  | + (the activity observed in the corresponding test system is 70% or more) | + (the activity observed in the corresponding test system is 70% or more) | 
12 | CS(=O)(=O)O.Clc1cccc(Nc2nccc(-c3ccnc(NCCCn4ccnc4)c3)n2)c1 [Compound 49] |  |  | + (the activity observed in the corresponding test system is 70% or more) | + (the activity observed in the corresponding test system is 70% or more) |  | + (the activity observed in the corresponding test system is 70% or more) | + (the activity observed in the corresponding test system is 70% or more) |  | 
13 | CCNc1cc(-c2ccnc(Nc3cccc(Cl)c3)n2)ccn1 [Compound 60] | 201 | > 70 | + (the activity observed in the corresponding test system is 70% or more) |  | + (the activity observed in the corresponding test system is 70% or more) | + (the activity observed in the corresponding test system is 70% or more) |  |  | > 70
14 | CNc1cc(-c2ccnc(Nc3cccc(Cl)c3)n2)ccn1 [Compound 64] | 196 to 197 | > 70 |  |  |  | + (the activity observed in the corresponding test system is 70% or more) |  |  | > 70
15 | C=CCNc1cc(-c2ccnc(Nc3cccc(Cl)c3)n2)ccn1 [Compound 69] |  |  | + (the activity observed in the corresponding test system is 70% or more) | + (the activity observed in the corresponding test system is 70% or more) | + (the activity observed in the corresponding test system is 70% or more) | + (the activity observed in the corresponding test system is 70% or more) | + (the activity observed in the corresponding test system is 70% or more) |  | 
16 | CC(C)(C)Nc1cc(-c2ccnc(Nc3cccc(Cl)c3)n2)ccn1 [Compound 70] | 125 to 126 | > 70 |  |  |  | + (the activity observed in the corresponding test system is 70% or more) |  |  | > 70
17 | Clc1cccc(Nc2nccc(-c3ccnc(NCC4CCCO4)c3)n2)c1 (stereo not shown) [Compound 75] |  |  | + (the activity observed in the corresponding test system is 70% or more) | + (the activity observed in the corresponding test system is 70% or more) | + (the activity observed in the corresponding test system is 70% or more) | + (the activity observed in the corresponding test system is 70% or more) | + (the activity observed in the corresponding test system is 70% or more) |  | 
18 | CC(COc1ncccn1)Nc1cc(-c2ccnc(Nc3cccc(Cl)c3)n2)ccn1 (stereo not shown) [Compound 95] |  |  |  | + (the activity observed in the corresponding test system is 70% or more) | + (the activity observed in the corresponding test system is 70% or more) |  | + (the activity observed in the corresponding test system is 70% or more) |  | 
19 | CCC(=O)Nc1cc(-c2ccnc(Nc3cccc(Cl)c3)n2)ccn1 [Compound 96] | 215 to 216 | > 70 |  |  | + (the activity observed in the corresponding test system is 70% or more) |  |  |  | > 70
20 | CCOC(=O)Nc1cc(-c2ccnc(Nc3cccc(Cl)c3)n2)ccn1 [Compound 121] |  |  |  |  |  |  | + (the activity observed in the corresponding test system is 70% or more) | + (the activity observed in the corresponding test system is 70% or more) | 
21 | Cl.Clc1cccc(Nc2nccc(-c3ccnc(NC4CCOC4)c3)n2)c1 (stereo not shown) [Compound 125] |  |  |  | + (the activity observed in the corresponding test system is 70% or more) |  | + (the activity observed in the corresponding test system is 70% or more) | + (the activity observed in the corresponding test system is 70% or more) | + (the activity observed in the corresponding test system is 70% or more) | 

Reference: patent publication US7109197B2, “N-phenyl-4-(4-pyridyl)-2-pyrimidineamine derivatives” (Syngenta Crop Protection, Inc., priority 2000, dated 2006)
